What was measured:
Test in all cases: relative viability (nuclei count vs DMSO), 5 days (fraction); higher = more cells survive
[1] = compound: COc1cc2c(Oc3ccc4[nH]c(C)cc4c3F)ncnc2cc1OCCCN1CCCC1 [Cediranib] + COc1cc2c(Oc3ccc(NC(=O)C4(C(=O)Nc5ccc(F)cc5)CC4)cc3F)ccnc2cc1OCCCN1CCOCC1 [Foretinib] (partner 0.25 µM)
How it was run: (§1)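 Relative viability is defined as nuclei in treated wells over nuclei in vehicle wells. Duplicate plates were run and medians reported. Lung cancer cell lines in 1536-well plates were dosed by pin tool one day after seeding, with one drug or with a fixed anchor-drug dose plus five library-drug doses (not always all listed) in √10 steps, and nuclei were counted after 5 days.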

[2] = compound: COc1cc2c(Oc3ccc4[nH]c(C)cc4c3F)ncnc2cc1OCCCN1CCCC1 [Cediranib] + Nc1ncn([C@H]2C[C@H](O)[C@@H](CO)O2)c(=O)n1 [Decitabine] (partner 2 µM)
How it was run: as §1

[3] = compound: Nc1ncn([C@H]2C[C@H](O)[C@@H](CO)O2)c(=O)n1 [Decitabine] + COc1cccc2cc(-c3nc([C@H]4CC[C@H](C(=O)O)CC4)n4ncnc(N)c34)[nH]c12 [OSI-027] (partner 0.5 µM)
How it was run: as §1

[4] = compound: O=C(C[C@H]1NCCC[C@@H]1O)Cn1cnc2cc(Br)c(Cl)cc2c1=O (racemic) [Halofuginone] + CS(=O)(=O)N1CCN(Cc2cc3nc(-c4cccc5[nH]ncc45)nc(N4CCOCC4)c3s2)CC1 [Pictilisib] (partner 1 µM)
How it was run: as §1

Cell Line: NCI-H23
- relative viability ([1]; first compound 0.04 µM): 1.07
- relative viability ([1]; first compound 0.4 µM): 0.939
- relative viability ([1]; first compound 1.265 µM): 0.863
- relative viability ([1]; first compound 4 µM): 1.03
- relative viability ([2]; first compound 0.04 µM): 0.327
- relative viability ([2]; first compound 0.1265 µM): 0.355
- relative viability ([2]; first compound 0.4 µM): 0.31
- relative viability ([2]; first compound 1.265 µM): 0.312
- relative viability ([2]; first compound 4 µM): 0.339
- relative viability ([3]; first compound 0.04 µM): 0.48
- relative viability ([3]; first compound 0.1265 µM): 0.498
- relative viability ([3]; first compound 0.4 µM): 0.255
- relative viability ([3]; first compound 1.265 µM): 0.231
- relative viability ([3]; first compound 4 µM): 0.245
- relative viability ([4]; first compound 0.001 µM): 0.507
- relative viability ([4]; first compound 0.003162 µM): 0.518
- relative viability ([4]; first compound 0.01 µM): 0.47
- relative viability ([4]; first compound 0.03162 µM): 0.415
- relative viability ([4]; first compound 0.1 µM): 0.296

Cell Line: NCI-H1355
- relative viability ([1]; first compound 0.04 µM): 0.991
- relative viability ([1]; first compound 0.1265 µM): 1.02
- relative viability ([1]; first compound 0.4 µM): 0.894
- relative viability ([1]; first compound 1.265 µM): 0.948
- relative viability ([1]; first compound 4 µM): 1.09
- relative viability ([2]; first compound 0.04 µM): 0.331
- relative viability ([2]; first compound 0.1265 µM): 0.359
- relative viability ([2]; first compound 0.4 µM): 0.353
- relative viability ([2]; first compound 1.265 µM): 0.367
- relative viability ([2]; first compound 4 µM): 0.429
- relative viability ([3]; first compound 0.04 µM): 0.352
- relative viability ([3]; first compound 0.1265 µM): 0.398
- relative viability ([3]; first compound 0.4 µM): 0.289
- relative viability ([3]; first compound 1.265 µM): 0.288
- relative viability ([3]; first compound 4 µM): 0.267
- relative viability ([4]; first compound 0.001 µM): 0.444
- relative viability ([4]; first compound 0.003162 µM): 0.424
- relative viability ([4]; first compound 0.01 µM): 0.458
- relative viability ([4]; first compound 0.03162 µM): 0.501
- relative viability ([4]; first compound 0.1 µM): 0.376

Cell Line: COR-L23
- relative viability ([1]; first compound 0.04 µM): 0.943
- relative viability ([1]; first compound 0.1265 µM): 0.938
- relative viability ([1]; first compound 0.4 µM): 0.916
- relative viability ([1]; first compound 1.265 µM): 1.05
- relative viability ([1]; first compound 4 µM): 1.09
- relative viability ([2]; first compound 0.04 µM): 0.528
- relative viability ([2]; first compound 0.1265 µM): 0.44
- relative viability ([2]; first compound 0.4 µM): 0.402
- relative viability ([2]; first compound 1.265 µM): 0.332
- relative viability ([2]; first compound 4 µM): 0.484
- relative viability ([3]; first compound 0.04 µM): 0.415
- relative viability ([3]; first compound 0.1265 µM): 0.401
- relative viability ([3]; first compound 0.4 µM): 0.335
- relative viability ([3]; first compound 1.265 µM): 0.227
- relative viability ([3]; first compound 4 µM): 0.158
- relative viability ([4]; first compound 0.001 µM): 0.954
- relative viability ([4]; first compound 0.003162 µM): 0.963
- relative viability ([4]; first compound 0.01 µM): 0.801
- relative viability ([4]; first compound 0.03162 µM): 0.6
- relative viability ([4]; first compound 0.1 µM): 0.156

Cell Line: NCI-H2023
- relative viability ([1]; first compound 0.04 µM): 0.775
- relative viability ([1]; first compound 0.1265 µM): 0.922
- relative viability ([1]; first compound 0.4 µM): 0.924
- relative viability ([1]; first compound 1.265 µM): 0.878
- relative viability ([1]; first compound 4 µM): 1.01
- relative viability ([2]; first compound 0.04 µM): 0.212
- relative viability ([2]; first compound 0.1265 µM): 0.229
- relative viability ([2]; first compound 0.4 µM): 0.229
- relative viability ([2]; first compound 1.265 µM): 0.234
- relative viability ([2]; first compound 4 µM): 0.266
- relative viability ([3]; first compound 0.04 µM): 0.275
- relative viability ([3]; first compound 0.1265 µM): 0.29
- relative viability ([3]; first compound 0.4 µM): 0.26
- relative viability ([3]; first compound 1.265 µM): 0.159
- relative viability ([3]; first compound 4 µM): 0.15
- relative viability ([4]; first compound 0.001 µM): 0.268
- relative viability ([4]; first compound 0.003162 µM): 0.232
- relative viability ([4]; first compound 0.01 µM): 0.228
- relative viability ([4]; first compound 0.03162 µM): 0.141
- relative viability ([4]; first compound 0.1 µM): 0.0681

Cell Line: A-427
- relative viability ([1]; first compound 0.04 µM): 1.12
- relative viability ([1]; first compound 0.4 µM): 0.948
- relative viability ([1]; first compound 1.265 µM): 0.925
- relative viability ([1]; first compound 4 µM): 0.942
- relative viability ([2]; first compound 0.04 µM): 0.566
- relative viability ([2]; first compound 0.4 µM): 0.537
- relative viability ([2]; first compound 1.265 µM): 0.537
- relative viability ([2]; first compound 4 µM): 0.66
- relative viability ([3]; first compound 0.04 µM): 0.266
- relative viability ([3]; first compound 0.1265 µM): 0.324
- relative viability ([3]; first compound 0.4 µM): 0.26
- relative viability ([3]; first compound 1.265 µM): 0.213
- relative viability ([3]; first compound 4 µM): 0.246
- relative viability ([4]; first compound 0.001 µM): 0.683
- relative viability ([4]; first compound 0.003162 µM): 0.749
- relative viability ([4]; first compound 0.01 µM): 0.73
- relative viability ([4]; first compound 0.03162 µM): 0.756
- relative viability ([4]; first compound 0.1 µM): 0.66

Cell Line: NCI-H1793
- relative viability ([1]; first compound 0.04 µM): 0.758
- relative viability ([1]; first compound 0.1265 µM): 0.931
- relative viability ([1]; first compound 0.4 µM): 0.698
- relative viability ([1]; first compound 4 µM): 0.672
- relative viability ([2]; first compound 0.04 µM): 0.51
- relative viability ([2]; first compound 0.1265 µM): 0.477
- relative viability ([2]; first compound 0.4 µM): 0.478
- relative viability ([2]; first compound 1.265 µM): 0.478
- relative viability ([2]; first compound 4 µM): 0.506
- relative viability ([3]; first compound 0.04 µM): 0.204
- relative viability ([3]; first compound 0.1265 µM): 0.277
- relative viability ([3]; first compound 0.4 µM): 0.289
- relative viability ([3]; first compound 1.265 µM): 0.277
- relative viability ([3]; first compound 4 µM): 0.233
- relative viability ([4]; first compound 0.001 µM): 0.329
- relative viability ([4]; first compound 0.003162 µM): 0.216
- relative viability ([4]; first compound 0.01 µM): 0.33
- relative viability ([4]; first compound 0.03162 µM): 0.381
- relative viability ([4]; first compound 0.1 µM): 0.228

Cell Line: NCI-H596
- relative viability ([1]; first compound 0.04 µM): 1.04
- relative viability ([1]; first compound 0.1265 µM): 0.833
- relative viability ([1]; first compound 0.4 µM): 0.974
- relative viability ([1]; first compound 4 µM): 0.926
- relative viability ([2]; first compound 0.04 µM): 1.04
- relative viability ([2]; first compound 0.1265 µM): 1.1
- relative viability ([2]; first compound 0.4 µM): 0.978
- relative viability ([2]; first compound 1.265 µM): 0.918
- relative viability ([2]; first compound 4 µM): 1.18
- relative viability ([3]; first compound 0.04 µM): 0.606
- relative viability ([3]; first compound 0.1265 µM): 0.793
- relative viability ([3]; first compound 1.265 µM): 0.581
- relative viability ([3]; first compound 4 µM): 0.477
- relative viability ([4]; first compound 0.001 µM): 0.423
- relative viability ([4]; first compound 0.003162 µM): 0.431
- relative viability ([4]; first compound 0.01 µM): 0.388
- relative viability ([4]; first compound 0.03162 µM): 0.423
- relative viability ([4]; first compound 0.1 µM): 0.3

Cell Line: LU99A
- relative viability ([1]; first compound 0.04 µM): 0.793
- relative viability ([1]; first compound 0.1265 µM): 0.728
- relative viability ([1]; first compound 0.4 µM): 0.8
- relative viability ([1]; first compound 1.265 µM): 0.769
- relative viability ([1]; first compound 4 µM): 0.832
- relative viability ([2]; first compound 0.04 µM): 0.936
- relative viability ([2]; first compound 0.4 µM): 0.844
- relative viability ([2]; first compound 1.265 µM): 0.863
- relative viability ([2]; first compound 4 µM): 0.936
- relative viability ([3]; first compound 0.04 µM): 0.307
- relative viability ([3]; first compound 0.1265 µM): 0.291
- relative viability ([3]; first compound 0.4 µM): 0.319
- relative viability ([3]; first compound 1.265 µM): 0.255
- relative viability ([3]; first compound 4 µM): 0.293
- relative viability ([4]; first compound 0.001 µM): 0.405
- relative viability ([4]; first compound 0.003162 µM): 0.361
- relative viability ([4]; first compound 0.01 µM): 0.294
- relative viability ([4]; first compound 0.03162 µM): 0.308
- relative viability ([4]; first compound 0.1 µM): 0.242

Cell Line: NCI-H2009
- relative viability ([1]; first compound 0.04 µM): 1.24
- relative viability ([1]; first compound 0.1265 µM): 1.15
- relative viability ([1]; first compound 0.4 µM): 1.24
- relative viability ([1]; first compound 1.265 µM): 1.25
- relative viability ([1]; first compound 4 µM): 1.17
- relative viability ([2]; first compound 0.04 µM): 0.4
- relative viability ([2]; first compound 0.1265 µM): 0.366
- relative viability ([2]; first compound 0.4 µM): 0.369
- relative viability ([2]; first compound 1.265 µM): 0.333
- relative viability ([2]; first compound 4 µM): 0.417
- relative viability ([3]; first compound 0.04 µM): 0.518
- relative viability ([3]; first compound 0.1265 µM): 0.437
- relative viability ([3]; first compound 0.4 µM): 0.336
- relative viability ([3]; first compound 1.265 µM): 0.296
- relative viability ([3]; first compound 4 µM): 0.25
- relative viability ([4]; first compound 0.001 µM): 1.07
- relative viability ([4]; first compound 0.003162 µM): 0.878
- relative viability ([4]; first compound 0.01 µM): 0.758
- relative viability ([4]; first compound 0.03162 µM): 0.689
- relative viability ([4]; first compound 0.1 µM): 0.26
